# Test results reported in ChEMBL document CHEMBL3774368, “1,2,4-Triazolyl octahydropyrrolo[2,3-b]pyrroles: A new series of potent and selective dopamine D3 receptor antagonists” (Bioorg Med Chem, 2016).
# Molecular target: T1, Muscarinic acetylcholine receptor M1 (Homo sapiens, UniProt P11229)
# T1 sequence (P11229 whole entry): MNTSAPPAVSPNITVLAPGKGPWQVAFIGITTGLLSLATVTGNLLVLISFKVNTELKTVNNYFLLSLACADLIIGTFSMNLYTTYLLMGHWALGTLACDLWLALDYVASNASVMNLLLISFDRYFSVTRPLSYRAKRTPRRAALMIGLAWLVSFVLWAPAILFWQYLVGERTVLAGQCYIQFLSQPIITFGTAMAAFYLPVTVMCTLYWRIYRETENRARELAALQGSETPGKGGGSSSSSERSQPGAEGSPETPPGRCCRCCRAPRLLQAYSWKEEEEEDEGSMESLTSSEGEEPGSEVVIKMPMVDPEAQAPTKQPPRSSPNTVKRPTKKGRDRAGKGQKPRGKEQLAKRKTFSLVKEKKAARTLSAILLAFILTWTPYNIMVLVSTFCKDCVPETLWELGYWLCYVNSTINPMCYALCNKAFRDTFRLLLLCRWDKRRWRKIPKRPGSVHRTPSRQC
# Experiment: Antagonist activity at recombinant human muscarinic M1 receptor expressed in CHO-K1 cells assessed as inhibition of acetylcholine induced calcium mobilization preincubated for 10 mins followed by acetylcholine addition measured after 1 hr by fluo-4 AM dye-based FLIPR assay
# Type: functional, cell-based
# Conditions: not given
row,SMILES,Ki [µM]
1,Cn1c(SCCCN2CC3CCN(c4ccccc4C(F)(F)F)C3C2)nnc1-c1cccnc1 (stereo in doubt; 52a),0.631
2,Cn1c(SCCCN2CC3CCN(c4ccc(C(F)(F)F)cc4)C3C2)nnc1-c1ccc(=O)n(C)c1 (stereo in doubt; 57b),0.38

# Molecular target: Cytochrome P450 2C19 (Homo sapiens, UniProt P33261)
# Experiment: Inhibition of recombinant human CYP2C19 expressed in baculosomes preincubated for 10 mins followed by cofactor addition measured every minute for 10 mins using 3-butyryl-7-methoxycoumarin as substrate by CYPEX assay
# Conditions: not given
# Sequence of Cytochrome P450 2C19 (P33261 whole entry): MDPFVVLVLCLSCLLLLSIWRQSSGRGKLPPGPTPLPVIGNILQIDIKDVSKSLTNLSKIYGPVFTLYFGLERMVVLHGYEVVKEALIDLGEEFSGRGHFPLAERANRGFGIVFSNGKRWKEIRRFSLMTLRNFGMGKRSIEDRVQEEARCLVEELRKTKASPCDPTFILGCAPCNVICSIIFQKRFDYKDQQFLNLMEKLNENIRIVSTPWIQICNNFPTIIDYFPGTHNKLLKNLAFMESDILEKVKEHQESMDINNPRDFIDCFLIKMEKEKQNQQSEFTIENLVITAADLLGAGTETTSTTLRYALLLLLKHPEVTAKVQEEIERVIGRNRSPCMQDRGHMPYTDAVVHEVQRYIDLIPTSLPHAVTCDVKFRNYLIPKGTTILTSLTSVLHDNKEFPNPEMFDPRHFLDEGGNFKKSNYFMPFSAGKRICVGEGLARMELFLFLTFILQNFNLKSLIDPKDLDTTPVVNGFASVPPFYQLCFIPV
row,SMILES,IC50 [µM]
1,Cc1ncoc1-c1nnc(SCCCN2CC3CCN(c4ccc(F)cc4)C3C2)n1C (stereo in doubt; 9a),> 5
2,Cn1c(SCCCN2CC3CCN(c4ccccc4C(F)(F)F)C3C2)nnc1-c1cccnc1 (stereo in doubt; 52a),> 3

# Molecular target: D(2) dopamine receptor (Homo sapiens, UniProt P14416)
# Experiment: Displacement of [3H]-spiperone from human dopamine D2 receptor expressed in CHO-K1 cell membranes after 120 mins by liquid scintillation counter method
# Conditions: not given
# Sequence of D(2) dopamine receptor (P14416 whole entry): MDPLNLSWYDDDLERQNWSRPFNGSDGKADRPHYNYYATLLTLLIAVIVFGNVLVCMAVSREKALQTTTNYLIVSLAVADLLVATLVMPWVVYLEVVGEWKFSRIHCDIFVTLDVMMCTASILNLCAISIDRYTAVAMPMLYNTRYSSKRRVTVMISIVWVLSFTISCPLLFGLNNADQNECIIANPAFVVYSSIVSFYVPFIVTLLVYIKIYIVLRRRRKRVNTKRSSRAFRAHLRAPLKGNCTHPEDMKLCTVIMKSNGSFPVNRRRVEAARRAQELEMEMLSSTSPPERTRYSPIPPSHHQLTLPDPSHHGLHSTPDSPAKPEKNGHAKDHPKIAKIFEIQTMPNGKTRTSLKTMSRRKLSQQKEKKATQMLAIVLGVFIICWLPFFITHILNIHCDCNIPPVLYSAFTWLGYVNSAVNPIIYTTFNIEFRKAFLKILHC
row,SMILES,Ki [µM]
1,Cc1ncoc1-c1nnc(SCCCN2CC3CCN(c4ccc(F)cc4)C3C2)n1C (stereo in doubt; 9a),0.126
2,Cn1c(SCCCN2CC3CCN(c4ccccc4C(F)(F)F)C3C2)nnc1-c1cccnc1 (stereo in doubt; 52a),0.398

# Tested on: Liver microsome
# Experiment: not given
# Conditions: rat, microsomes, 0.5 µM
row,SMILES,CLH [µL/min]
1,Cn1c(SCCCN2CC3CCN(c4ccc(C(F)(F)F)cc4)C3C2)nnc1-c1ccc(=O)n(C)c1 (stereo in doubt; 57b),30

# Tested on: not listed separately
# Experiment: Clearance in portal vein cannulated Sprague-Dawley rat blood
# Conditions: whole blood
row,SMILES,clearance [L/h/kg]
1,Cc1ncoc1-c1nnc(SCCCN2CC3CCN(c4ccc(F)cc4)C3C2)n1C (stereo in doubt; 9a),3.18

# Tested on: not listed separately
# Experiment: Fraction unbound in Sprague-Dawley rat brain
# Conditions: not given
row,SMILES,fraction unbound
1,Cc1ncoc1-c1nnc(SCCCN2CC3CCN(c4ccc(F)cc4)C3C2)n1C (stereo in doubt; 9a),0.095

# Molecular target: Muscarinic acetylcholine receptor M3 (Homo sapiens, UniProt P20309)
# Experiment: Antagonist activity at recombinant human muscarinic M3 receptor expressed in CHO-K1 cells assessed as inhibition of acetylcholine induced calcium mobilization preincubated for 10 mins followed by acetylcholine addition measured after 1 hr by fluo-4 AM dye-based FLIPR assay
# Type: functional, cell-based
# Conditions: not given
# Sequence of Muscarinic acetylcholine receptor M3 (P20309 whole entry): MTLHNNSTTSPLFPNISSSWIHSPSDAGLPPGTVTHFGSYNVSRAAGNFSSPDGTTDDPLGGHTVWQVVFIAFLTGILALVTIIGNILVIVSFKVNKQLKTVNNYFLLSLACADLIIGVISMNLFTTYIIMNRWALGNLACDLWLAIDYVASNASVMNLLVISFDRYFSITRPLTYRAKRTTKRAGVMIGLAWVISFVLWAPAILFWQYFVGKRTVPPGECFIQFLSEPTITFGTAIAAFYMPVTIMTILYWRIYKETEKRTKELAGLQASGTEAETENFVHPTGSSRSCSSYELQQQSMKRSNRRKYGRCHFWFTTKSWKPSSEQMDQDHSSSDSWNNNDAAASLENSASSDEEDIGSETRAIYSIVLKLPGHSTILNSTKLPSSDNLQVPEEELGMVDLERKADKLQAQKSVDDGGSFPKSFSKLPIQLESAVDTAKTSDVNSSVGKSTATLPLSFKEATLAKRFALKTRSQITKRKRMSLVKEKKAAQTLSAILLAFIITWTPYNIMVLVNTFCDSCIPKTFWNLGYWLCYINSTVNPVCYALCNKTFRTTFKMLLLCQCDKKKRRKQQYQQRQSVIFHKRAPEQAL
row,SMILES,Ki [µM]
1,Cn1c(SCCCN2CC3CCN(c4ccccc4C(F)(F)F)C3C2)nnc1-c1cccnc1 (stereo in doubt; 52a),2.19
2,Cn1c(SCCCN2CC3CCN(c4ccc(C(F)(F)F)cc4)C3C2)nnc1-c1ccc(=O)n(C)c1 (stereo in doubt; 57b),0.479

# Tested on: not listed separately
# Experiment: in vitro
# Conditions: human, liver microsomes, CLH
row,SMILES,microsomal CLint at 0.5 µM [µL/min/mg]
1,Cc1ncoc1-c1nnc(SCCCN2CC3CCN(c4ccc(F)cc4)C3C2)n1C (stereo in doubt; 9a),27
2,Cn1c(SCCCN2CC3CCN(c4ccccc4C(F)(F)F)C3C2)nnc1-c1cccnc1 (stereo in doubt; 52a),> 750

# Molecular target: T2, Cytochrome P450 1A2 (Homo sapiens, UniProt P05177)
# T2 sequence (P05177 whole entry): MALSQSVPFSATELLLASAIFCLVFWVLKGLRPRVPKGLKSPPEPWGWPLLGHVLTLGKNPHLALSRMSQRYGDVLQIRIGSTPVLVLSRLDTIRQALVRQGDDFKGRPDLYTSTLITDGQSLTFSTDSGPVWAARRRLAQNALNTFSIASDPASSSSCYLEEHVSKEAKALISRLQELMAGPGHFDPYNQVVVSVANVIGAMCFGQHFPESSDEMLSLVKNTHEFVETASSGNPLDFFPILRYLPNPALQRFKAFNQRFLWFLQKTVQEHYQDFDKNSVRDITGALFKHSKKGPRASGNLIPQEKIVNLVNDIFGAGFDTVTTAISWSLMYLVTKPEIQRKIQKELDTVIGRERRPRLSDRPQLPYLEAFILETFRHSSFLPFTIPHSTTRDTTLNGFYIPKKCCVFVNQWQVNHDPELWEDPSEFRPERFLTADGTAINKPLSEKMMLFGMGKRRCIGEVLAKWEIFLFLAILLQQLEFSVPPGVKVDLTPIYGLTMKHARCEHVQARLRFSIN
# Experiment: Inhibition of recombinant human CYP1A2 expressed in baculosomes preincubated for 10 mins followed by cofactor addition measured every minute for 10 mins using ethoxyresorufin as substrate by CYPEX assay
# Conditions: not given
row,SMILES,IC50 [µM]
1,Cc1ncoc1-c1nnc(SCCCN2CC3CCN(c4ccc(F)cc4)C3C2)n1C (stereo in doubt; 9a),> 5
2,Cn1c(SCCCN2CC3CCN(c4ccccc4C(F)(F)F)C3C2)nnc1-c1cccnc1 (stereo in doubt; 52a),> 3

# Molecular target: T3, Cytochrome P450 3A4 (Homo sapiens, UniProt P08684)
# Experiment: Inhibition of recombinant human CYP3A4 expressed in baculosomes preincubated for 10 mins followed by cofactor addition measured every minute for 10 mins using 7-benzyloxyquinoline as substrate by CYPEX assay
# Conditions: not given
# T3 sequence (P08684 whole entry): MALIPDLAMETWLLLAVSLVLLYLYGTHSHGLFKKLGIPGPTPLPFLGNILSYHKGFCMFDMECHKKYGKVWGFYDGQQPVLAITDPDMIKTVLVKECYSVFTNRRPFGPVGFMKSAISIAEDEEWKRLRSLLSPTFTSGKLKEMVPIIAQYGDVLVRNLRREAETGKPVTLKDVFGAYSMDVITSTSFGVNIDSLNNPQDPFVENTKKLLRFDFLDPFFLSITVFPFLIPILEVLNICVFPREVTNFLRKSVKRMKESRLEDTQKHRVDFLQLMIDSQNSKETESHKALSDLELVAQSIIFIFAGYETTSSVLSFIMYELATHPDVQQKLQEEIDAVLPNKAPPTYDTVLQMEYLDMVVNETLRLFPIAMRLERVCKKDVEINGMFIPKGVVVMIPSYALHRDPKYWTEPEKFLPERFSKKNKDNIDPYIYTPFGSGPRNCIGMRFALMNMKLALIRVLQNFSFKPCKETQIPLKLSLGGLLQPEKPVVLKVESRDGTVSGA
row,SMILES,IC50 [µM]
1,Cc1ncoc1-c1nnc(SCCCN2CC3CCN(c4ccc(F)cc4)C3C2)n1C (stereo in doubt; 9a),> 5
2,Cn1c(SCCCN2CC3CCN(c4ccccc4C(F)(F)F)C3C2)nnc1-c1cccnc1 (stereo in doubt; 52a),0.92

# Molecular target: T3, Cytochrome P450 3A4
# Experiment: Inhibition of recombinant human CYP3A4 expressed in baculosomes preincubated for 10 mins followed by cofactor addition measured every minute for 10 mins using diethoxyflourescein as substrate by CYPEX assay
# Conditions: not given
row,SMILES,IC50 [µM]
1,Cc1ncoc1-c1nnc(SCCCN2CC3CCN(c4ccc(F)cc4)C3C2)n1C (stereo in doubt; 9a),> 5
2,Cn1c(SCCCN2CC3CCN(c4ccccc4C(F)(F)F)C3C2)nnc1-c1cccnc1 (stereo in doubt; 52a),> 3

# Tested on: not listed separately
# Experiment: Fraction unbound in Sprague-Dawley rat blood
# Conditions: not given
row,SMILES,fraction unbound
1,Cc1ncoc1-c1nnc(SCCCN2CC3CCN(c4ccc(F)cc4)C3C2)n1C (stereo in doubt; 9a),0.14

# Molecular target: D(3) dopamine receptor (Homo sapiens, UniProt P35462)
# Experiment: Displacement of [3H]-spiperone from human dopamine D3 receptor expressed in CHO-K1 cell membranes after 90 mins by liquid scintillation counter method
# Conditions: not given
# Sequence of D(3) dopamine receptor (P35462 whole entry): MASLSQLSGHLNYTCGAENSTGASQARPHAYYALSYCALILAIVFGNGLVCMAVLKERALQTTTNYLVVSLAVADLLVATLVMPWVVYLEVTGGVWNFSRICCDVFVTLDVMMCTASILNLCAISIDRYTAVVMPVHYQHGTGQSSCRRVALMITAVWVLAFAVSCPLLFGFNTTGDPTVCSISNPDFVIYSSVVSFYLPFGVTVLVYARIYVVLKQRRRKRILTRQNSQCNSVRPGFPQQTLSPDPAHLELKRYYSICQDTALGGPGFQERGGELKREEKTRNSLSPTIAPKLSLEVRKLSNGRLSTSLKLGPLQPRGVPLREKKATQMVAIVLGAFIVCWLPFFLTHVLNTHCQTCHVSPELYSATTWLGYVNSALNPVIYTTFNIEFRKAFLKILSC
row,SMILES,Ki [µM]
1,Cn1c(SCCCN2CC3CCN(c4ccc(C(F)(F)F)cc4)C3C2)nnc1-c1ccc(=O)n(C)c1 (stereo in doubt; 57b),0.00501

# Tested on: not listed separately
# Experiment: Half life in portal vein cannulated Sprague-Dawley rat model
# Conditions: in vivo
row,SMILES,half-life [min]
1,Cc1ncoc1-c1nnc(SCCCN2CC3CCN(c4ccc(F)cc4)C3C2)n1C (stereo in doubt; 9a),18

# Tested on: Liver microsome
# Experiment: not given
# Conditions: human, microsomes, 0.5 µM
row,SMILES,CLH [µL/min]
1,Cn1c(SCCCN2CC3CCN(c4ccc(C(F)(F)F)cc4)C3C2)nnc1-c1ccc(=O)n(C)c1 (stereo in doubt; 57b),111

# Tested on: not listed separately
# Experiment: Permeability across apical to basolateral side in human Caco2 cells
# Conditions: Caco-2, permeability
row,SMILES,Papp A→B [nm/s]
1,Cc1ncoc1-c1nnc(SCCCN2CC3CCN(c4ccc(F)cc4)C3C2)n1C (stereo in doubt; 9a),175
2,Cn1c(SCCCN2CC3CCN(c4ccc(C(F)(F)F)cc4)C3C2)nnc1-c1ccc(=O)n(C)c1 (stereo in doubt; 57b),53

# Tested on: not listed separately
# Experiment: in vitro
# Conditions: rat, liver microsomes, CLH
row,SMILES,microsomal CLint at 0.5 µM [µL/min/mg]
1,Cc1ncoc1-c1nnc(SCCCN2CC3CCN(c4ccc(F)cc4)C3C2)n1C (stereo in doubt; 9a),136
2,Cn1c(SCCCN2CC3CCN(c4ccccc4C(F)(F)F)C3C2)nnc1-c1cccnc1 (stereo in doubt; 52a),> 750

# Molecular target: Cytochrome P450 2D6 (Homo sapiens, UniProt P10635)
# Experiment: Inhibition of recombinant human CYP2D6 expressed in baculosomes preincubated for 10 mins followed by cofactor addition measured every minute for 10 mins using 4-methylaminomethyl-7-methoxycoumarin as substrate by CYPEX assay
# Conditions: not given
# Sequence of Cytochrome P450 2D6 (P10635 whole entry): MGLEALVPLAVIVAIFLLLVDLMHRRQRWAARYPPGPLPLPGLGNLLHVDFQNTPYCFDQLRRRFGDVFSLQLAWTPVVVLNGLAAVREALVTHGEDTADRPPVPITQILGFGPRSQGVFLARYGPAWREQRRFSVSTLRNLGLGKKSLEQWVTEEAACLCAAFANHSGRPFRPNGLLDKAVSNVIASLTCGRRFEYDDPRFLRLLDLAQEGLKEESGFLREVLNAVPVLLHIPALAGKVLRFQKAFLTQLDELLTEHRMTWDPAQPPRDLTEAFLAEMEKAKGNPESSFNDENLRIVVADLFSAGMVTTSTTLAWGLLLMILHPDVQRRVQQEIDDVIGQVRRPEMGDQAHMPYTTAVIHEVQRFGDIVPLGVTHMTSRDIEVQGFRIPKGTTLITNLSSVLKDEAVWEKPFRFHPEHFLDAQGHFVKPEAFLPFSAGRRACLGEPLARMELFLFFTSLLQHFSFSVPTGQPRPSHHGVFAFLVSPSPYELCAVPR
row,SMILES,IC50 [µM]
1,Cc1ncoc1-c1nnc(SCCCN2CC3CCN(c4ccc(F)cc4)C3C2)n1C (stereo in doubt; 9a),> 5
2,Cn1c(SCCCN2CC3CCN(c4ccccc4C(F)(F)F)C3C2)nnc1-c1cccnc1 (stereo in doubt; 52a),> 3

# Tested on: not listed separately
# Experiment: Volume of distribution at steady state in portal vein cannulated Sprague-Dawley rat model
# Conditions: in vivo
row,SMILES,Vd [L/kg]
1,Cc1ncoc1-c1nnc(SCCCN2CC3CCN(c4ccc(F)cc4)C3C2)n1C (stereo in doubt; 9a),1.2

# Molecular target: Cytochrome P450 2C9 (Homo sapiens, UniProt P11712)
# Experiment: Inhibition of recombinant human CYP2C9 expressed in baculosomes preincubated for 10 mins followed by cofactor addition measured every minute for 10 mins using 7-methoxy-4-trifluoromethylcoumarin-3-acetic acid as substrate by CYPEX assay
# Conditions: not given
# Sequence of Cytochrome P450 2C9 (P11712 whole entry): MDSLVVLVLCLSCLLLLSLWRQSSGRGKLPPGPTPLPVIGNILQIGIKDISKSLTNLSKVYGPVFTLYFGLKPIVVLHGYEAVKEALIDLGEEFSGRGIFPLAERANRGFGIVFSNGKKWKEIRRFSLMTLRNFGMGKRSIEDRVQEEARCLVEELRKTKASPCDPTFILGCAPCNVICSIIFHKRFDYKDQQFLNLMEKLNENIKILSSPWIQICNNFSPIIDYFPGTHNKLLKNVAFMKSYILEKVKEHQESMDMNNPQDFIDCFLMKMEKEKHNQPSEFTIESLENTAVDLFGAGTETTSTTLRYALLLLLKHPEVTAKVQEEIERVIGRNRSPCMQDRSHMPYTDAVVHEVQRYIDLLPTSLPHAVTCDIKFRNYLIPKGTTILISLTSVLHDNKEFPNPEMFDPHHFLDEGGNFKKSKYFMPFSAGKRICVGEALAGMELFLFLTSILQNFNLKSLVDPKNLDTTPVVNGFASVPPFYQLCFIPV
row,SMILES,IC50 [µM]
1,Cc1ncoc1-c1nnc(SCCCN2CC3CCN(c4ccc(F)cc4)C3C2)n1C (stereo in doubt; 9a),> 5
2,Cn1c(SCCCN2CC3CCN(c4ccccc4C(F)(F)F)C3C2)nnc1-c1cccnc1 (stereo in doubt; 52a),> 3

# Tested on: not listed separately
# Experiment: Fraction absorbed in portal vein cannulated Sprague-Dawley rat model
# Conditions: in vivo
row,SMILES,Fa [%]
1,Cc1ncoc1-c1nnc(SCCCN2CC3CCN(c4ccc(F)cc4)C3C2)n1C (stereo in doubt; 9a),22
